This passage reports Ratio, MIC and MLC results from ChEMBL document CHEMBL1155703, “Sequences and antimycoplasmic properties of longibrachins LGB II and LGB III, two novel 20-residue peptaibols from Trichoderma longibrachiatum” (J Nat Prod, 2001).

A word on the MIC: it is the lowest concentration that inhibits growth of the organism.

The structures appear in SMILES notation. In brackets after ≈: the same amount, converted by molar mass. Square brackets hold non-standard residues; d marks the D form. Peptide text beside a SMILES is read from it. * marks the point of attachment. X2 = OC[C@H](Cc1c[nH]c2ccccc12)N*; Phe(ol) = N[C@H](CO)Cc1ccccc1; X1 = COC[C@H](Cc1ccccc1)N*; Aib = CC(C)(N)C(=O)O

Data set [1] in a line: Bilayer membrane permeabilization assessed as lipid to peptide ratio allowing 50% leakage of entrapped carboxyfluorescein from egg phosphatidylcholine-cholesterol liposomes at 0.98 uM at 20 mins by spectrofluorimetry. It counts as physicochemical.
Data set [2] in a line: Bilayer membrane permeabilization assessed as lipid to peptide ratio allowing 50% leakage of entrapped carboxyfluorescein from egg phosphatidylcholine-cholesterol liposomes at 0.36 uM at 20 mins by spectrofluorimetry. It counts as physicochemical.
Data set [3] can be described thus: Bilayer membrane permeabilization assessed as lipid to peptide ratio allowing 50% leakage of entrapped carboxyfluorescein from egg phosphatidylcholine-cholesterol liposomes at 0.45 uM at 20 mins by spectrofluorimetry. In kind it is physicochemical.
A short description of data set [4]: Bilayer membrane permeabilization assessed as lipid to peptide ratio allowing 50% leakage of entrapped carboxyfluorescein from egg phosphatidylcholine-cholesterol liposomes at 0.18 uM at 20 mins by spectrofluorimetry. In kind it is physicochemical.
For the next data set, the system named is Acholeplasma laidlawii. Description: Antimicrobial activity against Acholeplasma laidlawii PG-8A after 2 hrs. It counts as functional. The note with it: for MIC: Acholeplasma laidlawii, PG-8A, 2 h.
Data set [5] relates to Mycoplasmoides gallisepticum. Description: Antimicrobial activity against Mycoplasma gallisepticum S6 after 2 hrs. It counts as functional. The note with it: for MIC: Mycoplasmoides gallisepticum, S6, 2 h.
Data set [6] has as its system Mycoplasma mycoides subsp. mycoides SC. Nature of the data set: Antimicrobial activity against Mycoplasma mycoides subsp. mycoides SC KH3J after 2 hrs. In kind it is functional.
The subject of a further data set is Spiroplasma apis. Nature of the data set: Antimicrobial activity against Spiroplasma apis B31 after 2 hrs. In kind it is functional. The note with it: for MIC: Spiroplasma apis, B31, 2 h.
For another data set, the system named is Spiroplasma citri. Description: Antimicrobial activity against Spiroplasma citri R8A2 after 2 hrs. It counts as functional. The settings on record: R8A2, 2 h.
The test system of a further data set is Spiroplasma floricola. Description: Antimicrobial activity against Spiroplasma floricola BNR1 after 2 hrs. It counts as functional. The note with it: for MIC: Spiroplasma floricola, BNR1, 2 h.
Data set [7] is described as follows: Bilayer membrane permeabilization assessed as lipid to peptide ratio allowing 50% leakage of entrapped carboxyfluorescein from egg phosphatidylcholine-cholesterol liposomes at 0.21 uM at 20 mins by spectrofluorimetry. In kind it is physicochemical.
The nature of data set [8]: Bilayer membrane permeabilization assessed as lipid to peptide ratio allowing 50% leakage of entrapped carboxyfluorescein from egg phosphatidylcholine-cholesterol liposomes at 1.1 uM at 20 mins by spectrofluorimetry. It counts as physicochemical.

As for `CC(=O)NC(C)(C)C(=O)N[C@@H](C)C(=O)NC(C)(C)C(=O)N[C@@H](C)C(=O)NC(C)(C)C(=O)NC(C)(C)C(=O)N[C@@H](CCC(N)=O)C(=O)NC(C)(C)C(=O)N[C@H](C(=O)NC(C)(C)C(=O)NCC(=O)N[C@@H](CC(C)C)C(=O)NC(C)(C)C(=O)N1CCC[C@H]1C(=O)N[C@H](C(=O)NC(C)(C)C(=O)NC(C)(C)C(=O)N[C@@H](CCC(N)=O)C(=O)N[C@@H](CCC(N)=O)C(=O)N[C@H](CO)Cc1ccccc1)C(C)C)C(C)C` (Ac-[Aib]A[Aib]A[Aib][Aib]Q[Aib]V[Aib]GL[Aib]PV[Aib][Aib]QQ[Phe(ol)]), the Ratio in [1] amounted to 1820.

Regarding `CC[C@@](C)(NC(=O)C(C)(C)NC(=O)[C@@H](NC(=O)[C@@H]1CCCN1C(=O)C(C)(C)NC(=O)[C@H](CC(C)C)NC(=O)CNC(=O)C(C)(C)NC(=O)[C@@H](NC(=O)C(C)(C)NC(=O)[C@H](CCC(N)=O)NC(=O)[C@H](C)NC(=O)C(C)(C)NC(=O)[C@H](C)NC(=O)C(C)(C)NC(=O)[C@H](C)NC(=O)C(C)(C)NC(C)=O)C(C)C)C(C)C)C(=O)N[C@@H](CCC(=O)O)C(=O)N[C@@H](CCC(N)=O)C(=O)N[C@H](COC)Cc1ccccc1`, the Ratio in data set [2] is 2500.

Regarding `COC[C@H](Cc1ccccc1)NC(=O)[C@H](CCC(N)=O)NC(=O)[C@H](CCC(=O)O)NC(=O)C(C)(C)NC(=O)C(C)(C)NC(=O)[C@@H](NC(=O)[C@@H]1CCCN1C(=O)C(C)(C)NC(=O)[C@H](CC(C)C)NC(=O)CNC(=O)C(C)(C)NC(=O)[C@@H](NC(=O)C(C)(C)NC(=O)[C@H](CCC(N)=O)NC(=O)[C@H](C)NC(=O)C(C)(C)NC(=O)[C@H](C)NC(=O)C(C)(C)NC(=O)[C@H](C)NC(=O)C(C)(C)NC(C)=O)C(C)C)C(C)C` (Ac-[Aib]A[Aib]A[Aib]AQ[Aib]V[Aib]GL[Aib]PV[Aib][Aib]EQ-X1), the Ratio in [3] stood at 1335.

As for `CC[C@H](C)[C@H](NC(=O)C(C)(C)NC(=O)[C@@H](NC(=O)[C@@H]1CCCN1C(=O)C(C)(C)NC(=O)[C@H](CC(C)C)NC(=O)[C@H](CO)NC(=O)C(C)(C)NC(=O)C(C)(C)NC(=O)C(C)(C)NC(=O)[C@H](CCC(N)=O)NC(=O)C(C)(C)NC(=O)C(C)(C)NC(=O)[C@H](C)NC(=O)[C@H](C)NC(=O)C(C)(C)NC(C)=O)C(C)C)C(=O)N[C@@H](CCC(N)=O)C(=O)N[C@@H](CCC(N)=O)C(=O)N[C@H](CO)Cc1c[nH]c2ccccc12` (Ac-[Aib]AA[Aib][Aib]Q[Aib][Aib][Aib]SL[Aib]PV[Aib]IQQ-X2), in data set [4], the Ratio turned out to be 2220.

For the molecule `CC[C@@](C)(NC(=O)C(C)(C)NC(=O)[C@H](C)NC(=O)[C@H](CO)NC(=O)C(C)(C)NC(C)=O)C(=O)N[C@@H](CCC(N)=O)C(=O)NC(C)(C)C(=O)N[C@H](C(=O)NC(C)(C)C(=O)NCC(=O)N[C@@H](CC(C)C)C(=O)NC(C)(C)C(=O)N1CCC[C@H]1C(=O)N[C@@H](CC(C)C)C(=O)NC(C)(C)C(=O)NC(C)(C)C(=O)N[C@@H](CCC(N)=O)C(=O)N[C@H](CO)Cc1ccccc1)C(C)C`, the minimal inhibitory concentration (MIC) is 3.12 µM (≈ 5.56 µg/mL) in the data set with Acholeplasma laidlawii; 6.25 µM (≈ 11.1 µg/mL) in [5]; 12.5 µM (≈ 22.3 µg/mL) in [6]; 12.5 µM (≈ 22.3 µg/mL) in the data set with Spiroplasma apis; 12.5 µM (≈ 22.3 µg/mL) in the data set with Spiroplasma citri; 25 µM (≈ 44.6 µg/mL) in the data set on Spiroplasma floricola.

On to `CC(=O)NC(C)(C)C(=O)N1CCC[C@H]1C(=O)NC(C)(C)C(=O)N[C@@H](C)C(=O)NC(C)(C)C(=O)N[C@@H](C)C(=O)N[C@@H](CCC(N)=O)C(=O)NC(C)(C)C(=O)N[C@H](C(=O)NC(C)(C)C(=O)NCC(=O)N[C@@H](CC(C)C)C(=O)NC(C)(C)C(=O)N1CCC[C@H]1C(=O)N[C@H](C(=O)NC(C)(C)C(=O)NC(C)(C)C(=O)N[C@@H](CCC(N)=O)C(=O)N[C@@H](CCC(N)=O)C(=O)N[C@H](CO)Cc1ccccc1)C(C)C)C(C)C` [ALAMETHICIN F50] (Ac-[Aib]P[Aib]A[Aib]AQ[Aib]V[Aib]GL[Aib]PV[Aib][Aib]QQ[Phe(ol)]), for which the MIC in the data set on Acholeplasma laidlawii came to 1.56 µM (≈ 3.06 µg/mL); in [5] it was 6.25 µM (≈ 12.3 µg/mL); in data set [6] it was 12.5 µM (≈ 24.5 µg/mL); in the data set with Spiroplasma apis it was 6.25 µM (≈ 12.3 µg/mL); against Spiroplasma citri, 3.12 µM (≈ 6.13 µg/mL); in the data set with Spiroplasma floricola, 6.25 µM (≈ 12.3 µg/mL).

`CC[C@@](C)(NC(=O)C(C)(C)NC(=O)[C@@H](NC(=O)[C@@H]1CCCN1C(=O)C(C)(C)NC(=O)[C@H](CC(C)C)NC(=O)CNC(=O)C(C)(C)NC(=O)[C@@H](NC(=O)C(C)(C)NC(=O)[C@H](CCC(N)=O)NC(=O)[C@H](C)NC(=O)C(C)(C)NC(=O)[C@H](C)NC(=O)C(C)(C)NC(=O)[C@H](C)NC(=O)C(C)(C)NC(C)=O)C(C)C)C(C)C)C(=O)N[C@@H](CCC(N)=O)C(=O)N[C@@H](CCC(N)=O)C(=O)N[C@@H](CO)Cc1ccccc1`: the Ratio in data set [7] was 2860.

For the molecule `CC(=O)NC(C)(C)C(=O)N[C@@H](C)C(=O)NC(C)(C)C(=O)N[C@@H](C)C(=O)NC(C)(C)C(=O)N[C@@H](C)C(=O)N[C@@H](CCC(N)=O)C(=O)NC(C)(C)C(=O)N[C@H](C(=O)NC(C)(C)C(=O)NCC(=O)N[C@@H](CC(C)C)C(=O)NC(C)(C)C(=O)N1CCC[C@H]1C(=O)N[C@H](C(=O)NC(C)(C)C(=O)NC(C)(C)C(=O)N[C@@H](CCC(N)=O)C(=O)N[C@@H](CCC(N)=O)C(=O)N[C@H](CO)Cc1ccccc1)C(C)C)C(C)C` (Ac-[Aib]A[Aib]A[Aib]AQ[Aib]V[Aib]GL[Aib]PV[Aib][Aib]QQ[Phe(ol)]), in data set [2], the Ratio is 1667.

`CC[C@@](C)(NC(=O)C(C)(C)NC(=O)[C@@H](NC(=O)[C@@H]1CCCN1C(=O)C(C)(C)NC(=O)[C@H](CC(C)C)NC(=O)CNC(=O)C(C)(C)NC(=O)[C@@H](NC(=O)C(C)(C)NC(=O)[C@H](CCC(N)=O)NC(=O)[C@H](C)NC(=O)C(C)(C)NC(=O)[C@H](C)NC(=O)C(C)(C)NC(=O)[C@H](C)NC(=O)C(C)(C)NC(C)=O)C(C)C)C(C)C)C(=O)N[C@@H](CCC(=O)O)C(=O)N[C@@H](CCC(N)=O)C(=O)N[C@H](CO)Cc1ccccc1`: the MLC (with Acholeplasma laidlawii; in data set [5]; with Spiroplasma apis; in the data set with Spiroplasma floricola) was 3.12 µM (≈ 6.09 µg/mL) each time. In addition, the minimal inhibitory concentration (MIC) in the data set with Acholeplasma laidlawii amounted to 1.56 µM (≈ 3.05 µg/mL); in [5] it was 6.25 µM (≈ 12.2 µg/mL); in data set [6], 6.25 µM (≈ 12.2 µg/mL); with Spiroplasma apis, 12.5 µM (≈ 24.4 µg/mL); in the data set on Spiroplasma citri, 6.25 µM (≈ 12.2 µg/mL); in the data set with Spiroplasma floricola, 12.5 µM (≈ 24.4 µg/mL). Besides, the Ratio in data set [8] came out at 540.

Regarding `CC(=O)NC(C)(C)C(=O)N[C@@H](C)C(=O)NC(C)(C)C(=O)N[C@@H](C)C(=O)NC(C)(C)C(=O)N[C@@H](C)C(=O)N[C@@H](CCC(N)=O)C(=O)NC(C)(C)C(=O)N[C@H](C(=O)NC(C)(C)C(=O)NCC(=O)N[C@@H](CC(C)C)C(=O)NC(C)(C)C(=O)N1CCC[C@H]1C(=O)N[C@H](C(=O)NC(C)(C)C(=O)NC(C)(C)C(=O)N[C@@H](CCC(=O)O)C(=O)N[C@@H](CCC(N)=O)C(=O)N[C@H](CO)Cc1ccccc1)C(C)C)C(C)C` (Ac-[Aib]A[Aib]A[Aib]AQ[Aib]V[Aib]GL[Aib]PV[Aib][Aib]EQ[Phe(ol)]), the MLC (in the data set with Acholeplasma laidlawii; in data set [5]; with Spiroplasma apis; with Spiroplasma floricola) was 3.12 µM (≈ 6.05 µg/mL) throughout. Besides, the minimal inhibitory concentration (MIC) in the data set with Acholeplasma laidlawii turned out to be 1.56 µM (≈ 3.02 µg/mL); in data set [5], 6.25 µM (≈ 12.1 µg/mL); in data set [6], 12.5 µM (≈ 24.2 µg/mL); in the data set with Spiroplasma apis, 12.5 µM (≈ 24.2 µg/mL); with Spiroplasma citri, 6.25 µM (≈ 12.1 µg/mL); against Spiroplasma floricola, 12.5 µM (≈ 24.2 µg/mL).
